From patent US20230357261A1, “ARYL HYDROCARBON RECEPTOR LIGANDS AND THEIR ANALOGUES FOR THE PREVENTION AND TREATMENT OF INFLAMMATORY DISORDERS” (The Johns Hopkins University, priority 2020, published 2023)
“Also recorded” adds a separate entry of the source.

Experiments:
[1] = tested on: AHR; assay: AHR activation in mouse intestine in vivo (Cyp1a1 expression by qRT-PCR); conditions: for expression of the AHR response gene Cyp1a1 in the small intestine: maternal diet with I3C throughout pregnancy, 25 mg/kg body weight/day
Protocol: Hits were validated for activation of AHR signaling by oral gavage into neonatal C57/B16 mice (p11), and measuring the expression of the AHR activation reporter Cyp1a1 by qRT-PCR in the intestinal mucosa 24 hours later. The lead compound from these studies is herein labelled “A18”. Additionally, the mice were subjected to hypoxia (5% 02-95% N2) for 10 min in a hypoxia chamber (Billups-Rothenberg) twice daily for 4 days. […] To test the protective effect of breast milk on AHR signaling a NEC, human breast milk (Innovative Research) was supplemented to the formula at the final concentration of 5%. Endotoxemia was induced in neonatal mouse pups (p11) by administering 5 mg/kg lipopolysaccharides (LPS) via intraperitoneal injection, and ileal samples were harvested 6 hours after LPS treatments. […] I3C and A18 were administered to the pregnant mother daily until the offspring were studied further for experimental NEC or endotoxemia as above. […] The mRNA quantification was performed on the Bio-Rad CFX96 Real-Time System (Bio-Rad) using iTaqTM universal SYBR® Green supermix (Bio-Rad) and the primers listed in Table 1. The relative mRNA expression levels were normalized against the expression of the housekeeping gene ribosomal protein lateral stalk subunit P0 (Rplp0). For microRNA isolation, freshly harvested, snap-frozen ileal tissue was subjected to total RNA isolation using the RNeasy plus universal mini kit (Qiagen) and miRNA was quantified using miScript PCR starter kit (Qiagen) following the manufacturer's protocols. The relative miRNA expression levels were normalized against the expression of housekeeping miRNA miR-191.

[2] = tested on: mouse NEC model; assay: Experimental NEC in newborn mice (Example 1); type: in vivo
[3] = tested on: TLR4; assay: TLR4 signaling and Tlr4 expression in newborn mouse ileum in vivo (endotoxemia model, LPS)
Protocol: Endotoxemia was induced in neonatal mouse pups (p11) by administering 5 mg/kg lipopolysaccharides (LPS) via intraperitoneal injection, and ileal samples were harvested 6 hours after LPS treatments. […] I3C and A18 were administered to the pregnant mother daily until the offspring were studied further for experimental NEC or endotoxemia as above. […] The mRNA quantification was performed on the Bio-Rad CFX96 Real-Time System (Bio-Rad) using iTaqTM universal SYBR® Green supermix (Bio-Rad) and the primers listed in Table 1. The relative mRNA expression levels were normalized against the expression of the housekeeping gene ribosomal protein lateral stalk subunit P0 (Rplp0). For microRNA isolation, freshly harvested, snap-frozen ileal tissue was subjected to total RNA isolation using the RNeasy plus universal mini kit (Qiagen) and miRNA was quantified using miScript PCR starter kit (Qiagen) following the manufacturer's protocols. The relative miRNA expression levels were normalized against the expression of housekeeping miRNA miR-191.

[4] = tested on: TLR4; assay: TLR4 signaling in mouse ileal enteroids (LPS-induced Tnf-a qRT-PCR); type: cell-based; conditions: I3C or breast milk pre-treatment, LPS 50 μg/mL
Protocol: Primary intestinal crypt cultures (enteroids) were generated from the ileum of neonatal (p7-p11) wild type and Ahr′ mice at as described, Neal et al., 2012, and maintained in Matrigel (Corning). The enteroids were digested and passed using TrypLE Express (Gibco) weekly, and used between passage 3 and 10 for all experiments. The enteroids were pre-treated with I3C ([…], 12 h), A18 (20 μM, 12 h) or human breast milk (100 μL/mL, Innovative Research, prepared by 5-minute-cenrifugation at 12,000 g and then filtration of supernatant through a 0.22-μm filter) and then treated with LPS (50 μg/mL) for 4 hours for further analysis.
Primary intestinal crypt cultures (enteroids) were generated from the ileum of neonatal (p7-p11) mice at as described, Neal et al., 2012, and maintained in Matrigel (Corning). The enteroids were digested and passed using TrypLE Express (Gibco) weekly, and used between passage 3 and 10 for all experiments. The enteroids were pre-treated with tested compound (40 uM, overnight) and then treated with LPS (50 μg/mL) for 6 hours for further analysis.
(§1) Total RNA was isolated using the RNeasy mini kit (Qiagen) and complementary DNA was synthesized from 0.5 μg RNA using QuantiTect Reverse Transcription kit (Qiagen) following the manufacturer's protocols. The mRNA quantification was performed on the Bio-Rad CFX96 Real-Time System (Bio-Rad) using iTaq™ universal SYBR® Green supermix (Bio-Rad) and the primers listed in Table 2. The relative mRNA expression levels were normalized against the expression of the housekeeping gene ribosomal protein lateral stalk subunit P0 (Rplp0).

[5] = tested on: miR-146b, miR-223 and let-7i; assay: Tlr4 regulatory microRNAs in mouse ileum; type: in vivo; conditions: I3C 25 mg/kg body weight/day for 24 hours
Protocol: as §1, with “1.” for “2.”, “(Rplp0). For microRNA isolation, freshly harvested, snap-frozen ileal tissue was subjected to total RNA isolation using the RNeasy plus universal mini kit (Qiagen) and miRNA was quantified using miScript PCR starter kit (Qiagen) following the manufacturer's protocols. The relative miRNA expression levels were normalized against the expression of housekeeping miRNA miR-191.” for “(Rplp0).”

[6] = pups, maternal I3C during pregnancy

For `OCc1c[nH]c2ccccc12` [I3C, indole-3-carbinol], the “Cyp1a1 expression in the neonatal intestinal epithelium (ileum)” value ([1]; Ahr^Δlys mice, NEC model, I3C 25 mg/kg body weight/day for 4 days) was “induced the expression Cyp1a1; also recorded: moderate increase”, the “Cyp1a1 expression in the intestinal epithelium” value ([1]; Ahr^−/− newborn mice, fed I3C 25 mg/kg/day or A18 300 mg/kg/day) was “did not induce Cyp1a1” and the “Cyp1a1 expression in the intestinal epithelium” value ([1]; Il22^−/− mice, NEC model, I3C 25 mg/kg body weight/day for 4 days) was “induced the expression of Cyp1a1”. For the same compound, the “expression of the AHR response gene Cyp1a1 in the small intestine” value ([1]; fetus at e17.5) was “induced the expression of the AHR response gene Cyp1a1”, the “Cyp1a1 expression in suckling pups” value ([1]; p11, I3C administered to the lactating mother) was “induced Cyp1a1 expression” and the “expression of the AHR response gene Cyp1a1 in the small intestine” value ([1]; pregnant mother) was “induced the expression of the AHR response gene Cyp1a1”. The “Cyp1a1 expression in the intestinal epithelium” value ([1]; wild-type newborn (p11) mice, fed I3C 25 mg/kg/day or A18 300 mg/kg/day) was “induced Cyp1a1 expression”, the “Cyp1a1 expression in the neonatal intestinal epithelium (ileum)” value ([1]; wildtype mice, NEC model, I3C 25 mg/kg body weight/day for 4 days) was “induced the expression Cyp1a1; also recorded: multifold induction” and the NEC severity ([2]; Ahr^ΔIEC mice, I3C 25 mg/kg/day during NEC induction) was “relatively scant protective effect”. For the same compound, the NEC severity ([2]; Ahr^Δlys mice, I3C 25 mg/kg/day during NEC induction) was “moderate protective effect; also recorded: protection against NEC development”, the NEC severity ([2]; Ahr^−/− mice, oral to pups during NEC induction: I3C 25 mg/kg/day, A18 300 mg/kg/day, or human breast milk 5% in formula) was “no protective effect” and the NEC severity ([2]; Il22^−/− mice, I3C 25 mg/kg/day for 4 days) was “reduced NEC severity”. For the same compound, the “severity of experimental NEC in the pups” value ([2]; oral I3C to the mother during pregnancy, 25 mg/kg body weight/day) was “significantly reduced the severity of experimental NEC”, the “expression of 116 in the intestinal epithelium (NEC)” value [2, 6] was “reduced expression of 116” and the “histological injury (terminal ileum, NEC)” value [2, 6] was “reduced histological injury”. For the same compound, the “intestinal epithelial apoptosis (TUNEL, NEC)” value [2, 6] was “reduced intestinal epithelial apoptosis”, the NEC severity ([2]; wild-type mice, oral to pups during NEC induction: I3C 25 mg/kg/day, A18 300 mg/kg/day, or human breast milk 5% in formula) was “significantly reduced the severity of NEC; also recorded: protection against NEC development” and the “TLR4 signaling (LPS-induced Tnfa) in the intestine” value ([3]; Ahr^−/− mice, I3C) was “did not reduce”. For the same compound, the “Tlr4 expression in the intestinal mucosa” value ([3]; Ahr^−/− mice, I3C) was “did not reduce”, the “induction of the proinflammatory cytokine 116 in the neonatal (p11) mouse intestine in response to LPS” value ([3]; maternal administration of I3C, vs pups from non I3C-treated mothers) was “significantly reduced the induction of the proinflammatory cytokine 116” and the “Tlr4 expression in the intestinal mucosa / newborn ileum” value ([3]; wild-type mice, fed I3C or A18) was “reduced expression of Tlr4”. For the same compound, the “LPS-induced Tnfa expression (TLR4 signaling) in the intestine” value ([3]; wild-type p11 mice fed I3C) was “reduced LPS-induced Tnfa expression”, the “LPS-induced Tnfa expression in enteroids” value ([4]; Ahr^−/− enteroids) was “not” and the “LPS-induced Tnfa expression in enteroids” value ([4]; wild-type enteroids) was “significantly reduced the LPS-mediated induction of Tnfa”. The “expression in the ileum of microRNAs miR-146b, miR-223 and let-7i” value ([5]; Ahr^−/− mice) was “did not increase the expression of these microRNAs” and the “expression in the ileum of microRNAs miR-146b, miR-223 and let-7i” value ([5]; wild type mice) was “significantly upregulated”.
